According to US20100113517A1, “METHOD FOR THE TREATMENT OF FABRY DISEASE USING PHARMACOLOGICAL CHAPERONES” (AMICUS THERAPEUTICS, INC., priority 2007, published 2010):
“And” between values parts separate entries of the source, which are not always exact repeats. Identical values can stand only once. Like-named read-outs stand apart in the source and are kept apart here.

Experiments:
α-Gal A [1] = assay: Phase II study in Fabry patients, α-Gal A activity in white blood cells; type: in vivo, Fabry patients (human)
Method: Study Design. A two-arm design was planned. […] In the second arm, escalating doses of 25, 100, and then 250 mg b.i.d. over 6 weeks, followed by 50 mg/day for the remainder of the study.
α-Gal A activity. In addition, α-Gal A activity will be assessed in fractionated tissue obtained from biopsies and in blood leukocytes and plasma (from blood collected at baseline and every month).
α-Gal A Activity. […] Eight patients in the study received an acending dose of 25, 100, and then 250 mg b.i.d. over 6 weeks, followed by 50 mg/day for the remainder of the study (represented on FIG. 2 by closed circles). For purposes of calculating the percentage of normal in the table, the level of α-GAL that is normal was derived by using the average of the levels of α-GAL in white blood cells of 15 healthy volunteers from the multiple-dose Phase I study.

[2] = Phase Ib twice daily oral dose study, pharmacokinetics; type: in vivo, healthy volunteers (human); details: for half-life: read-out: t½ (converted)
Method: Study Design and Duration. […] Subjects were housed in the treatment facility from 14 hours prior to dosing until 24 hours after dosing. Meals were controlled by schedule and subjects remained abulatory for 4 hours post drug administration
Pharmacokinetic Sampling. Blood samples (10 mL each) were collected in blood collection tubes containing EDTA before dosing and at the following times thereafter: 0.25, 0.5, 0.75, 1, 1.5, 2, 3, 4, 5, 6, 7, 8, 9, 10, 11 and 12 hours. Blood samples were cooled in an ice bath and centrifuged under refrigeration as soon as possible. Plasma samples were divided into two aliquots and stored at […] pending assay. At the end of the study, all samples were transferred to MDS Pharma Services Analytical Laboratories (Lincoln) for analysis.
Pharmacokinetic parameters were summarised by treatment group using descriptive statistics (arithmetic means, standard deviations, coefficients of variation, sample size, minimum, maximum and median).

[3] = Phase II study in Fabry patients, cardiac, renal and central nervous system function; type: in vivo, Fabry patients (human); details: after 12 to 48 weeks of treatment
Method: Study Design. A two-arm design was planned. […] In the second arm, escalating doses of 25, 100, and then 250 mg b.i.d. over 6 weeks, followed by 50 mg/day for the remainder of the study. Cardiac anaylsis. In addition to the biopsies described above, MRIs and echocardiogram with strain rate evaluations will be performed at baseline, 3 and 6 months to assess cardiac morphology (e.g., left ventricular hyertrophy) and cardiac function (e.g., congestive heart failure, ischemia, infarction, arrhythmia). […] Hypertension will also be ealuated since hypertension (associated with renal dysfunction) can increase the risk for hemorrhagic stroke.

[4] = tested on: mutant α-Gal A (R301Q or Q279E); details: lymphoblasts from Fabry patients with R301Q or Q279E mutations; cited from earlier work
α-Gal A [5] = assay: Plasma concentration at which enzyme activity enhancement is seen (clinical and preclinical studies); type: in vivo; details: clinical studies and preclinical studies in mice
GL-3 = assay: Phase II study in Fabry patients, GL-3 levels (kidney, skin, urine, plasma); type: in vivo, Fabry patients (human)
Method: Study Design. A two-arm design was planned. In one arm, eligible patients were given 150 mg of DGJ-HCl every other day for 12 weeks, with an extension up to 48 weeks. In the second arm, escalating doses of 25, 100, and then 250 mg b.i.d. over 6 weeks, followed by 50 mg/day for the remainder of the study.
GL-3 deposits. Skin, kidney and heart biopsies will be performed at baseline, 3 months and six months and evaluated for GL-3 deposits in skin fibroblasts, cardiac myocytes, and various renal cells.
GL-3 levels. […] Urine and plasma GL-3 levels at baseline and after treatment as assessed by liquid chromatography mass spectrometry were available for 10 patients. […] For the few patients that had elevated levels of GL-3 in urine or plasma at baseline, the results were difficult to interpret due to high intra-patient variability.
Skin GL-3 levels at baseline and after treatment as assessed by light and electron microscopy are available for 10 patients.

[6] = human, plasma, oral, 50 mg, 50 mg bid, Day 1
[7] = human, plasma, oral, 50 mg, 50 mg bid, Day 7
[8] = human, plasma, oral, 150 mg, 150 mg bid, Day 1
[9] = human, plasma, oral, 150 mg, 150 mg bid, Day 7

12 h cumulative renal excretion ([2]; 50 mg bid, Day 1): 16% and 16 ± 6%
12 h cumulative renal excretion ([2]; 50 mg bid, Day 7): 48% and 48 ± 7%
Cmin ([2]; 50 mg bid, Day 7): 0.4 ± 0.03 µM
12 h cumulative renal excretion ([2]; 150 mg bid, Day 1): 42% and 42 ± 7%
12 h cumulative renal excretion ([2]; 150 mg bid, Day 7): 60% and 60 ± 5%
Cmin ([2]; 150 mg bid, Day 7): 1.2 ± 0.1 µM
time of peak concentrations, on average ([2]; all dose levels (50 and 150 mg b.i.d.)): approximately 3 hours
increase of Cmax with dose ([2]; doses increased from 50 mg to 150 mg): dose-proportional manner
concentration at 7 day ([2]; human, plasma, oral, 50 mg b.i.d., Day 7, read-out: Cmin): 400 nM
Cmax [2, 6]: 2.3 ± 0.3 µM
Tmax [2, 6]: 2.9 ± 0.4 h
Cmax [2, 7]: 3.9 ± 0.5 µM
Tmax [2, 7]: 2.5 ± 0.4 h
Cmax [2, 8]: 11.3 ± 1.5 µM
Tmax [2, 8]: 3.1 ± 0.4 h
Cmax [2, 9]: 10.8 ± 1.4 µM
Tmax [2, 9]: 2.9 ± 0.4 h
half-life ([2]; human, plasma, oral, 50 mg bid, Day 1): 150 min
half-life ([2]; human, plasma, oral, 150 mg bid, Day 1): 144 min
Structure (SMILES): OCC1NCC(O)C(O)C1O (stereo not shown) [DGJ, 1-deoxygalactonojirimycin]
enzyme activity at the lowest dose evaluated (α-Gal A [1]; 25 mg b.i.d., Fabry patients): increased enzyme activity
restoration of α-Gal A activity levels by titration (α-Gal A [1]; as measured in white blood cells): to the normal range
enzyme activity after dose reduction (α-Gal A [1]; dose reduced after 6 weeks to 50 mg/day): remains elevated
patients with an increase in the activity of the enzyme deficient in Fabry disease (α-Gal A [1]; first eleven patients treated for at least 12 weeks, white blood cells): 10 of the 11
cardiac, renal and central nervous system function [3]: no clinically meaningful changes
enhancement of mutant enzyme activity [4]: ≥ 45%
plasma concentration at which the pharmacological effect (enzyme activity enhancement) is seen (α-Gal A [5]): approximately 0.4 μM
kidney GL-3 by electron microscopy, one patient (GL-3; 12 weeks of treatment, mesangial cells, glomerular endothelium, distal tubules): observed decrease in GL-3
kidney GL-3 by electron microscopy, second patient (GL-3; 24 weeks of treatment, same kidney cell types, not independently conclusive (lower baseline GL-3)): showed a decrease of GL-3 levels
GL-3 in other kidney cell types including interstitial capillaries (GL-3; both patients): the decreases were not significant
urine and plasma GL-3 levels by liquid chromatography mass spectrometry (GL-3; most of 10 patients, baseline and after treatment): normal or near normal both before and after treatment
skin GL-3 levels by light and electron microscopy (GL-3; seven of 10 patients, baseline and after treatment): normal or near normal both before and after treatment
